Assay results taken from paper PMC3773576 (Cell Research, 2013).
pEC50: −log10 of the molar value.

Key:
[1] = target: T1, KCNQ2 potassium channel (Kv7.2) (Homo sapiens, UniProt O43526); test: whole-cell voltage clamp in CHO cells; assay type: cell-based
[2] = target: T1, KCNQ2 potassium channel (Kv7.2); test: whole-cell voltage clamp in CHO cells, with VSD mutagenesis; assay type: cell-based

T1 sequence (O43526 whole entry): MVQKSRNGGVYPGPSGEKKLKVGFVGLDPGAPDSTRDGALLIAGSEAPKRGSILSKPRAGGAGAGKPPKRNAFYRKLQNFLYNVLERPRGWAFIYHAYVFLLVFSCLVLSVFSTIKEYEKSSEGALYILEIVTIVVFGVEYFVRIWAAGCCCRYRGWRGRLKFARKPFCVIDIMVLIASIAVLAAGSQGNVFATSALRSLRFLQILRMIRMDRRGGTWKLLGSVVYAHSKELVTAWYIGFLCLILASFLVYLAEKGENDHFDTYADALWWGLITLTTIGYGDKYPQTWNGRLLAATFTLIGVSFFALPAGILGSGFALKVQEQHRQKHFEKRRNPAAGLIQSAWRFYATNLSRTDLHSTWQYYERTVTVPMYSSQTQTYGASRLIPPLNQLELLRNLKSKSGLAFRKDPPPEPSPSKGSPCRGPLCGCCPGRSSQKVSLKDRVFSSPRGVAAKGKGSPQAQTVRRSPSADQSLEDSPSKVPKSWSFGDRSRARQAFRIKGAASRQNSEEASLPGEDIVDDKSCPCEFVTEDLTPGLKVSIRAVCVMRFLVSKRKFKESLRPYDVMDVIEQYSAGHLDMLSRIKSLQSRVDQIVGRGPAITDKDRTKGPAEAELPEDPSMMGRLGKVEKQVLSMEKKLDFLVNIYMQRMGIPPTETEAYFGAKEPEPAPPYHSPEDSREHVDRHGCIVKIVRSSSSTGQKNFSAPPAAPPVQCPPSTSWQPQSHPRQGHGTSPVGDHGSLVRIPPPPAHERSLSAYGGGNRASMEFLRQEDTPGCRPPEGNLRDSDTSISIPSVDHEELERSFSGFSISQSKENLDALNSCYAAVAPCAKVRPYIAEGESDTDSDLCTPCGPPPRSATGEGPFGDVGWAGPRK

| Compound | whole-cell voltage clamp in CHO cells [1] | pEC50 [2] |
| --- | --- | --- |
| O=C(Nc1ccc(Cl)nc1)c1ccccc1 [YGP1, N-(6-Chloropyridin-3-yl)benzamide] | Electrophysiological recording showed that YGP1 still exhibited potentiation activity on KCNQ2 as ztz240 did | – |
| O=C(Nc1ccc(Cl)nc1)c1ccc(F)cc1 [ztz240] | – | 5.55 |
